Measured values taken from US20260335398A1, “METHODS FOR TREATING PANCREATIC CANCER WITH A COMBINATION OF DES-METHYL PATEAMINE A AND A CLASS I HDAC INHIBITOR” (Baylor University, priority 2023, published 2026).

Assays:
c-MYC = experiment: Immunoblot of c-MYC protein levels in PDAC cell lines treated with DMPatA and DMDAPatA (FIG. 6B); assay type: cell-based; conditions: Capan-1, PANC-1, AsPC-1, MIA PaCa-2; 24 and 48 hours; DMPatA 10 and 20 nM, DMDAPatA 40 nM
Procedure: FIG. 6B compares immunoblots of c-MYC protein levels from whole cell extracts of various PDAC cell lines (Capan-1, PANC-t, AsPC-1, MIA PaCa-2) treated with DMPatA (10 nM and 20 nM) and DMDPatA ([…]) (40 nM). Treatment was for 24 and 48 hours.
Western blotting was carried out as previously described (Luchenko V L, Litman T, Chakraborty A R, et al. 65. Membranes were probed with primary antibodies: Phospho-Histone H2A.X (Ser139) (1:1000, Millipore Sigma #05-636), GAPDH (1:10000, Abcam #ab8245), c-Myc (1:1000, Abcam #ab32072), β-Actin (1:1000, Cell Signaling Technology (CST), #8457), Phospho-RPA32/RPA2 (Ser33) (1:1000, Cell Signaling Technology #10148), Phospho-Chk1 (Ser345) (1:1000, CST #2341), and secondary antibodies IRDye® 680RD Goat anti-Mouse and IRDye® 800CW Goat anti-Rabbit (both from LI-COR Biosciences). Signal quantification was performed using the Odyssey CLx imaging system (LI-COR Biosciences), capturing various exposures within the linear range with ImageStudio software V3.1 (LI-COR Biosciences).

MIA PaCa-2 and KLM cells [1] = experiment: RNA-seq gene expression analysis (FIG. 9A); assay type: cell-based; conditions: total 18 h (6 h romidepsin 15 nM + 12 h with/without DMPatA 2 nM); |log2FC|≥1, adjusted p<0.05
Procedure: Plots show a significant increase in the overall gene expression in the cells treated with the combination. Cells treated for a total of 18 h (i.e., 6-hour romidepsin followed by 12-hour incubation with 2 nM DMPatA (combo) or without (Romi alone)).
To gain further insight into the effects of the combination treatment gene expression was profiled in MIA PaCa-2 and KLM cells treated with vehicle, the single agents, or the combination for a total of 18 h (i.e., 6-hour romidepsin treatment followed by 12-hour washout with 2 nM DMPatA or without), probing whether alterations observed following combination treatment could be explained by changes in gene expression.
Total RNA was extracted using RNeasy mini kit (Qiagen) from cells collected after 18 hours (6 hours romidepsin (15 nM)+12 hours washout with or without DMPatA (2 nM)) incubation with or without drugs. RNA quantitation and quality were assessed by the Agilent Bioanalyzer 2100 at the Molecular Pathology Shared Resource of the Herbert Irving Comprehensive Cancer Center at Columbia University (mBank). RNA library preparation and sequencing was performed at Columbia University's Sulzberger Genome Center. Briefly, poly-A pull-down was used to enrich mRNAs from total RNA samples, followed by library construction using Illumina TruSeq chemistry. Libraries were then sequenced using Illumina NovaSeq 6000. For the DESeq2 (v 1.40.2) analysis the data were imported with tximport in DESeq2 and a dds object was generated. Variance stabilizing transformation was used on the object and the output was used for the heatmap and PCA plots. Abundance of transcripts was estimated by pseudoalignment using kallisto, and downstream analysis was performed using R (v4.3.1) and the indicated packages. […] Differentially expressed genes were determined using linear regression method (limma v3.56.2), and genes with |log 2FC|≥1 and adjusted p-value <0.05 were plotted accordingly on volcano plots and heatmap (ggplot2 v3.5.0 and ComplexHeatmap v2.16.0). […]

[2] = tested on: PDAC cell lines (Capan-1, PANC-1, AsPC-1, MIA PaCa-2); experiment: Cytotoxicity/cell viability (CellTiter-Glo) of DMPatA on PDAC cell lines, 48 h (FIG. 6A); assay type: cell-based; conditions: four PDAC cell lines (Capan-1, PANC-1, AsPC-1, MIA PaCa-2)
Procedure: FIG. 6A compares cytotoxicity graphs of the effect (viability) of DMPatA on various PDAC cell lines (Capan-1, PANC-1, AsPC-1, MIA PaCa-2) following 48 hours of treatment.
(§1) Previous studies have reported that inhibitors of translation initiation prevent cell proliferation and reduce levels of critical oncoproteins such as MYC and cyclinD1. The effects of DMPatA, a novel inhibitor of eIF4A helicase, was evaluated on four PDAC cell lines. All cells were sensitive to treatment with IC50s ranging from 2.8 to 10 nM (FIG. 6A). […] The efficacy of another eIF4Ai, zotatifin (eFT226), was evaluated on MIA PaCa-2 and KLM cells.
(§2) Cell viability was determined using CellTiter-Glo® reagent (Promega, #G7570) following the manufacturer's instructions. Cells were seeded at […] in white 96-well plates and grown overnight. They were then treated and incubated at 37 °C with 5% CO2. After incubation, assay reagent was added, and luminescent signals were quantified using a microplate reader (PHERAstar® FS, BMG LABTECH, Ortenberg, Germany). Caspase-Glo 3/7 assay (Promega, #G8091) was also employed following the manufacturer's instructions to measure apoptosis.

[3] = Body weight of xenograft mice (FIG. 2B); assay type: in vivo, athymic nude mice; conditions: IP; romidepsin 0.75 mg/kg, DMPatA 0.075 mg/kg
From the text: FIGS. 2A and 2B illustrate the results of a MIA PaCa-2 xenograft model of PDAC in male athymic nude mice. FIG. 2A compares tumor growth (mm^3) in mice treated with the indicated concentrations of combination, romidepsin and DMPatA using IP route and vehicles described in the materials and methods section below. FIG. 2B compares body weight (g) of mice treated with the combination and single agents following treatment. FIGS. 2C and 2D compare quantification of H3K9ac and c-MYC antibodies. Frozen sections from MIA PaCa-2 xenograft tumor tissues were subjected to immunohistochemical analysis using antibodies against H3K9ac, and c-MYC. Fluorescence images were captured using fluorescent microscopy and the fluorescent signal from H3K9ac and c-MYC antibodies were quantified. To quantify fluorescence intensity at least 500 cells per condition were measured for each antibody at 40× magnification. The median of the signal intensity is shown. Statistical significance was determined by one-way ANOVA using Tukey multiple comparisons test, ****p value<0.0001.
Animal studies were performed according to Institutional Animal Care and Use Committee (IACUC) protocol number AC-AABD2601. Following the establishment of initial dose levels for individual drugs, efficacy of the combination and single agents in a MIA PaCa-2 xenograft model was assessed at a tolerable dose and schedule. […]

MIA PaCa-2 and KLM cells [4] = experiment: Cell proliferation with zotatifin on MIA PaCa-2 and KLM cells; assay type: cell-based
Procedure: as §1, §2

Q: Which c-MYC protein levels (c-MYC) does the source give for `CC(/C=C/C(C)=C/[C@@H]1Cc2nc(cs2)CCCCC(=O)O[C@@H](C)C/C(C)=C/C=C\C(=O)O1)=C\CN(C)C` [DMDAPatA, des-methyl des-amino pateamine A] here?
A: reduced c-MYC levels in all cell lines

Q: Which “number of differentially expressed genes (DEGs)” value (MIA PaCa-2 and KLM cells [1]) does the source give for `CC(/C=C/C(C)=C/[C@@H]1Cc2nc(cs2)CC[C@@H](N)CC(=O)O[C@@H](C)C/C(C)=C/C=C\C(=O)O1)=C\CN(C)C` [DMPatA, des-methyl pateamine A] here?
A: 1443 DEGs

Q: And the IC50 [2]?
A: 2.8 to 10 nM

Q: What about the “body weight vs vehicle” value [3] of the same molecule?
A: neither the single agent nor the combination treatments had a significant impact on weight

Q: With `COc1cc2c(c(OC)n1)[C@]1(O)[C@H](O)[C@H](CN(C)C)[C@@H](c3ccccc3)[C@]1(c1ccc(C#N)cc1)O2` [zotatifin] as the molecule, how does the “potency in suppressing proliferation, DMPatA vs zotatifin” value (MIA PaCa-2 and KLM cells [4]) read?
A: reduced potency, compared to DMPatA
